The subject of assay [1] is SK-BR-3 human breast cancer cells. As to the kind of experiment: SRB cell proliferation assay in vitro. The following applies: SK-BR-3, Her2 highly expressing, 5 days, FIG. 4. The assay is classed as cell-based. From the text:
(§1) Sulforhodamine B (SRB)-based colorimetric method was used in this Example to evaluate the anti-proliferative effect of the drugs. SRB is a pink anionic dye which is easily soluble in water and can specifically bind to basic amino acids making up proteins in cells under an acidic condition. It provides an absorption peak at 510 nm, and the absorbance is linearly and positively correlated with the amount of cells. In this regard, the method can be used in a quantitative detection of cell number.
BT-474, SK-BR-3 and NCI-N87 cells in RPMI 1640 medium containing 10% fetal bovine serum, SKOV-3, Du-145, Panc-1, MCF-7 and MDA-MB-231 cells in DMEM containing 10% fetal bovine serum, and MDA-MB-468 cells in DMEM/F12 containing 10% fetal bovine serum were incubated to logarithmic growth phase in a 5% CO2 incubator at 37° C. The above cells in the logarithmic growth phase were inoculated into 96-well plates at a density of 2×10^3 to 9×10^3 cells per well, 100 μL per well, cultured for 24 hours and then different concentrations of drugs were added thereto for 5 days. Specifically, each drug was prepared into nine concentrations by diluting in 3, 4 or 5-fold, each concentration was set in duplicate wells, and corresponding concentration of vehicle control wells and medium control wells without cells were set too. […]

Assay [2] concerns BT-474 human breast cancer cells. In words: SRB cell proliferation assay in vitro. The assay is classed as cell-based.
Source text: as §1
(§2) BT-474, SK-BR-3 and NCI-N87 cells in RPMI 1640 medium containing 10% fetal bovine serum, SKOV-3, Du-145, Panc-1, MCF-7 and MDA-MB-231 cells in DMEM containing 10% fetal bovine serum, and MDA-MB-468 cells in DMEM/F12 containing 10% fetal bovine serum were incubated to logarithmic growth phase in a 5% CO2 incubator at 37° C. The above cells in the logarithmic growth phase were inoculated into 96-well plates at a density of 2×10^3 to 9×10^3 cells per well, 100 μL per well, cultured for 24 hours and then different concentrations of drugs were added thereto for 5 days. Specifically, each drug was prepared into nine concentrations by diluting in 3, 4 or 5-fold, each concentration was set in duplicate wells, and corresponding concentration of vehicle control wells and medium control wells without cells were set too. At the end of drug action, culture solutions were decanted, and 100 μl of a pre-cooled trichloroacetic acid solution (30%, w/v) at 4° C. was added to each well and the cells were fixed at 4° C. for 1 hour. Subsequently, the cells were washed with deionized water for 5 times, and dried at room temperature, and then 100 μL of 0.4% (w/v) SRB dye (Sigma, prepared with 1% glacial acetic acid) was added to each well. After being incubated and stained at room temperature for 30 minutes, the cells were washed with 1% glacial acetic acid for 4 times to remove unbound dyes, and then dried at room temperature. Afterwards, 100 μL of 10 mM Tris solution was added per well.
(§3) Sulforhodamine B (SRB)-based colorimetric method was used in this Example to evaluate the anti-proliferative effect of the drugs. […] It provides an absorption peak at 510 nm, and the absorbance is linearly and positively correlated with the amount of cells. In this regard, the method can be used in a quantitative detection of cell number.
(§4) The above cells in the logarithmic growth phase were inoculated into 96-well plates at a density of 2×10^3 to 9×10^3 cells per well, 100 μL per well, cultured for 24 hours and then different concentrations of drugs were added thereto for 5 days. […] At the end of drug action, culture solutions were decanted, and 100 μl of a pre-cooled trichloroacetic acid solution (30%, w/v) at 4° C. was added to each well and the cells were fixed at 4° C. for 1 hour.

Assay [3] relates to NCI-N87 human gastric cancer cells. As to the kind of experiment: SRB cell proliferation assay in vitro. The assay is classed as cell-based.
Source text: as §1, §2, §3, §4

Assay [4] deals with human gastric cancer NCI-N87 subcutaneous xenografts. In words: In vivo anti-tumor efficacy assay (FIG. 10), IV once a week, 2 times in total. On the set-up: species or system BALB/cA-nude mice. The following applies: 1 mg/kg. As for the experimental part:
(§5) 6-7 weeks BALB/cA-nude mice (♀) were purchased from Shanghai Lingchang Biotechnology Co., Ltd. Production license number: SCXK (Shanghai) 2013-0018; animal certificate number: 2013001815683; and feeding environment: SPF level.
Those nude mice were subcutaneously inoculated with human gastric cancer NCI-N87 cells, and then randomly divided into groups (D0) when tumors grew to 100-250 mm^3. Tumor volume was measured 2-3 times a week, the mice were weighed, and corresponding data were recorded. The tumor volume (V) was calculated as: V=½×a×b^2; in which a and b represent length and width respectively. T/C (%)=(T−T0)/(C−C0)×100, in which T and C represent the tumor volumes at the end of the experiment; T0 and C0 represent the tumor volumes at the beginning of the experiment.

For assay [5] the test system is unchanged. As to the kind of experiment: In vivo anti-tumor efficacy assay (FIG. 24), IV on D 0. On the set-up: species or system BALB/cA-nude mice. The following applies: 1.0 mg/kg. As for the experimental part: as §5
Those nude mice were subcutaneously inoculated with 6×10^6 human gastric cancer NCI-N87 cells, and after the tumors grew to 100-250 mm^3, the mice were divided into groups (D0) according to tumor volumes. The mice were injected intravenously (IV), each with an administration volume 10 mL/kg; mice in vehicle control group was administered with the same volume of “vehicle” (physiological saline containing 0.1% BSA). Tumor volume was measured 2 times a week, the mice were weighed, and corresponding data were recorded.
The purpose of this experiment was to investigate the effect of the drugs on tumor growth using specific indicators T/C % or tumor growth inhibition value (TGI) (%).
Tumor diameters were measured twice a week with a vernier caliper. The tumor volume (V) was calculated as: V=½×a×b^2; in which a and b represent length and width respectively. T/C(%)=(T−T0)/(C−C0)×100, in which T and C represent the tumor volumes at the end of the experiment; T0 and C0 represent the tumor volumes at the beginning of the experiment. […]

Assay [6] relates to 18 human tumor cell lines. The following applies: cited from earlier work.

For the substance “P-mcVC-MMAE: comparison Pertuzumab conjugate; traditional mcVC-PAB conjugate with MMAE”, the “inhibition of tumor cell proliferation” value in assay [1] is listed as “significant inhibition of tumor cell proliferation”. The “inhibition of tumor cell proliferation” value in assay [2] (BT-474, Her2 highly expressing, 5 days, FIG. 5) was “significant inhibition of tumor cell proliferation”. In addition, the “inhibition of tumor cell proliferation” value in assay [3] (NCI-N87, Her2 highly expressing, 5 days, FIG. 6, FIG. 9-1) was “significant inhibition of tumor cell proliferation”. In addition, in assay [4], the “mice with tumors partially regressed” value was 2/6 and the tumor inhibition rate is listed as 94%. Moreover, in assay [5], the “% T/C D 23” value came out at 17%, the “% TGI D 23” value amounted to 83% and the “Mean tumor volume (mm3) D 23” value was 194.6 mm3. In assay [5] (number of mice, 6 per group), this substance registered a Partial regression of 3 and a complete regression of 0.
A word on the IC50: it is the midpoint of a concentration-inhibition curve. Turning to “Pertuzumab: HER2 antibody, naked antibody”, the concentration for half-maximal inhibition (IC50) in assay [2] (BT-474, 120 h) was over 10 µg/mL; in assay [3] (NCI-N87, 120 h), over 10 µg/mL.
Turning to Taltobulin, in assay [6], the IC50 is 2.5 nM.

The values are drawn from patent publication US10987430B2, “Di-substituted maleic amide linker for antibody drug conjugating and preparation method and use thereof” (Mabwell (shanghai) Bioscience Co., Ltd., priority 2016, dated 2021).
